Key:
NIT-1 cells = assay: Cell glucose uptake assay, NIT-1; type: cell-based; settings: NIT-1, 8a (3.125, 6.25, 12.5 μM) + insulin (100 nM) vs insulin only, 30 min
Description: The NIT-1 and β-TC-6 cells were added to the wells of 12-well plates and incubated overnight. Then the culture medium without FBS was incubated for 6 h, and different concentrations of 8a (3.125, 6.25, 12.5 μM), insulin (100 nM) or their combination were added for 30 min. Glucose uptake was determined using a Glucose Uptake Assay Kit (Jiancheng, Nanjing).

BXPC-3 cells = assay: Colony formation assay; type: cell-based; settings: dose-dependent
Description: The BXPC-3 cells were plated in six-well plates at 1000 cells per well. After 12 h, different concentrations of 8a, Gemcitabine or their combination were added for 7–10 days. The cells were fixed for 15 min with paraformaldehyde (4%) and then stained with crystal violet (0.1%) for 15 min at room temperature. Surviving colonies consisting of 50 or more cells were counted under microscope.

BXPC-3 xenografts = assay: BXPC-3 tumor xenograft in nude mice; type: in vivo, BALB/c nude mice
Description: Female BALB/c nude mice (14 ± 2 g, 4 weeks old) were purchase. About 2 × 10^6 of BXPC-3 cells were inoculated into nude mouse flanks. When the tumor volume reached approximately 100 mm^3, mice were randomly divided into four groups with six mice per group before treatment and then treated with vehicle, 8a (20 mg/kg), gemcitabine (10 mg/kg) and their combination every 2 days. Tumor volumes and body weight were measured every 3 days, and use the formula to calculate the tumor volume: V = (L × W × W)/2 (V, tumor volume; L, length; and W, width). Mice were sacrificed and tumor tissues were removed. Tumor tissues were fixed with paraformaldehyde (4%) and embedded with paraffin.
To further confirm whether 8a can enhance the antitumor effects of gemcitabine in vivo, the BXPC-3 PDAC xenografts were used. The mice with tumors received intraperitoneal injection of compound 8a (20 mg/kg), gemcitabine (10 mg/kg), or their combination once every 2 days for 4 weeks. Tumor volumes and body weight of mice were monitored every 3 days.

SIRT3 = SIRT3 (Homo sapiens, UniProt Q9NTG7); assay: Deacetylation activity selectivity, SIRT3; type: biochemical
Description: Fluor-De-Lys (FDL) assays were used for the examination of the deacetylation activities of sirtuins as described previously. For the detection of SIRT6 activity, the 50-μL reaction mixture contained 5 μM SIRT6, 2.5 mM NAD^+ (β-Nicotinamide adenine dinucleotide hydrate, Sigma, N1636), 75 μM RHKK-Ac-AMC (GL Biochem, Shanghai), compounds/DMSO, and assay buffer. The reactions were incubated at 37 °C for 2 h, added 50 μL stop solution (40 mM nicotinamide, 6 mg/mL trypsin) at 25 °C for 30 min. Fluorescence intensity was measured at an excitation wavelength of 360 nm and an emission wavelength of 460 nm. IC50 values were calculated in GraphPad Prism version 8.00.
(§1) Based on the above results, 8a was further investigated in this study. […] To further evaluate the selectivity of 8a for SIRT6, we examined the effect of 8a on the deacetylation activity of other HDAC family members, including HDAC1-HDAC11, SIRT1-SIRT3 and SIRT5. […] Furthermore, to confirm binding of 8a to SIRT6 in cells, we carried out the cellular thermal shift assay (CETSA). The CETSA approach builds on the thermal shift assay concept where ligand binding to its target protein enhances the target protein stability. We observed that the thermal stability of SIRT6 increased after 8a treatment (Figs. 2c, d).

HDAC9 = HDAC9 (Homo sapiens, UniProt Q9UKV0); assay: Deacetylation activity selectivity, HDAC9; type: biochemical
Description: as §1

HDAC7 = HDAC7 (Homo sapiens, UniProt Q8WUI4); assay: Deacetylation activity selectivity, HDAC7; type: biochemical
Description: as §1

HDAC3 = HDAC3 (Homo sapiens, UniProt O15379); assay: Deacetylation activity selectivity, HDAC3; type: biochemical
Description: as §1

[1] = tested on: islet α cells and β cells; assay: Immunofluorescence of pancreatic tissues (islet cell composition); type: in vivo; settings: mice, 8a 20 mg/kg, 2 weeks
Description: (§2) Male C57BL/6 mice (18 ± 2 g, 5 weeks old) were randomly divided into four groups with six mice per group. Acute drug toxicity test was performed. Mice were fasted for 6 h, and basal blood glucose and serum insulin levels were measured by using Accu-Check Performa (Roche, Swiss) glucose meter and Mouse Insulin ELISA kit (Solarbio). Compound 8a (10, 20, 30 mg/kg) was intraperitoneally injected for 10 min, followed by glucose (2 g/kg) intraperitoneally injected. The blood glucose concentration was measured at 30 and 60 min after glucose injection, and the serum insulin content of mice was measured at 60 min. Compound 8a was treated every other day for 2 weeks and tested for chronic drug toxicity. According to the above method, the serum glucose and insulin content of mice were measured.
Pancreatic tissue sections were incubated with primary antibodies overnight at 4 °C. The primary antibodies were as follows: anti-Glucagon (Cell Signaling Technology, Cat#2760), anti-insulin (Cell Signaling Technology, Cat#3014). The sections were stained with secondary antibodies (Alexa Fluor 488-conjugated anti-rabbit IgG, Abcam, Cat#ab150077) for 2 h at 4 °C in dark. After washing with PBS, the sections were stained with DAPI and observed by confocal microscopy (Leica TCS SP8 STED 3X).

[2] = Glucose uptake and insulin secretion in vivo; design: species or system C57BL/6 mice; settings: mice, 8a 10, 20, 30 mg/kg i.p. + glucose 2 g/kg vs glucose group; short term and long term (2 weeks)
Description: as §2

HDAC6 = HDAC6 (Homo sapiens, UniProt Q9UBN7); assay: Deacetylation activity selectivity, HDAC6; type: biochemical
Description: as §1

Sequence of HDAC3 (O15379 whole entry, species assumed): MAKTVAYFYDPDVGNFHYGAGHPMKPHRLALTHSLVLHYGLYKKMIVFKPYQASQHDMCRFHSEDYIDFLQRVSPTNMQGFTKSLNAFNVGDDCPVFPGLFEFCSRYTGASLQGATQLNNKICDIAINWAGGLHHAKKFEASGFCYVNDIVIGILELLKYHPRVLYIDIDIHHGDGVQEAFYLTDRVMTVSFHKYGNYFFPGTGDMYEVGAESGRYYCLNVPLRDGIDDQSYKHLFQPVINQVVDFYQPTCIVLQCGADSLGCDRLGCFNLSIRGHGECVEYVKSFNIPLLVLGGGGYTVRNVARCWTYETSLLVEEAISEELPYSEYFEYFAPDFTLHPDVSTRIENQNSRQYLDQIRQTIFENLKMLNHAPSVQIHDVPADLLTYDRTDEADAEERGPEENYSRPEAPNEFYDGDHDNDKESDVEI
Sequence of HDAC3 (Q9Y618 395-489 partner limits assumed, species assumed): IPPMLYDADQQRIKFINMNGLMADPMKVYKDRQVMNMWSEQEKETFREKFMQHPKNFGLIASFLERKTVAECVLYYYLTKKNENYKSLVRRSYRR
Sequence of HDAC9 (Q9UKV0 whole entry, species assumed): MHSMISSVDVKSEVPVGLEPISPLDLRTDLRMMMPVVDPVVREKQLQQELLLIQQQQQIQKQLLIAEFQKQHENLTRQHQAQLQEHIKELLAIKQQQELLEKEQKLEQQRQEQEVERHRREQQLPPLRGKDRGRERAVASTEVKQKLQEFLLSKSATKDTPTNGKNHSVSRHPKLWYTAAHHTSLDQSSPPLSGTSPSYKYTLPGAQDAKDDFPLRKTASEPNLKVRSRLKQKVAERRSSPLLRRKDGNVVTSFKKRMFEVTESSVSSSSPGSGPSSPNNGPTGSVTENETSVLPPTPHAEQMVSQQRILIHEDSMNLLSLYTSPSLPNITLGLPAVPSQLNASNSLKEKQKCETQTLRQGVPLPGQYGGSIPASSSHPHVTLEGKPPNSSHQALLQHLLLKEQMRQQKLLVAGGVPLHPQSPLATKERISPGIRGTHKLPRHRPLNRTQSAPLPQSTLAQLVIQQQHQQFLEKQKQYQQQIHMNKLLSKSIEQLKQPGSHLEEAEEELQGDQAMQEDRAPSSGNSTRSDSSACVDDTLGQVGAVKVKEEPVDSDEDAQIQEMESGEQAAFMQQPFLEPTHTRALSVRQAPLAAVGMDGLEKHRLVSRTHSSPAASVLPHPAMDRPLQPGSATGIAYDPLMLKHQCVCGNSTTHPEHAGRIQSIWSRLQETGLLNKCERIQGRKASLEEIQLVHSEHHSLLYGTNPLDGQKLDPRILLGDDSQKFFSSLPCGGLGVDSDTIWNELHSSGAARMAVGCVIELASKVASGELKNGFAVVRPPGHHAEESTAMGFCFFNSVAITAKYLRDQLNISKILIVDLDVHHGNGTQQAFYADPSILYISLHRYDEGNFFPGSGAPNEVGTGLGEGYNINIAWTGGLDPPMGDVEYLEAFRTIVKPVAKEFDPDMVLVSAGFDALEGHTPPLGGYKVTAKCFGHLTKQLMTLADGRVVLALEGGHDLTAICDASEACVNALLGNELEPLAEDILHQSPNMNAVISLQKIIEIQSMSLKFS
Sequence of HDAC6 (Q9UBN7 whole entry, species assumed): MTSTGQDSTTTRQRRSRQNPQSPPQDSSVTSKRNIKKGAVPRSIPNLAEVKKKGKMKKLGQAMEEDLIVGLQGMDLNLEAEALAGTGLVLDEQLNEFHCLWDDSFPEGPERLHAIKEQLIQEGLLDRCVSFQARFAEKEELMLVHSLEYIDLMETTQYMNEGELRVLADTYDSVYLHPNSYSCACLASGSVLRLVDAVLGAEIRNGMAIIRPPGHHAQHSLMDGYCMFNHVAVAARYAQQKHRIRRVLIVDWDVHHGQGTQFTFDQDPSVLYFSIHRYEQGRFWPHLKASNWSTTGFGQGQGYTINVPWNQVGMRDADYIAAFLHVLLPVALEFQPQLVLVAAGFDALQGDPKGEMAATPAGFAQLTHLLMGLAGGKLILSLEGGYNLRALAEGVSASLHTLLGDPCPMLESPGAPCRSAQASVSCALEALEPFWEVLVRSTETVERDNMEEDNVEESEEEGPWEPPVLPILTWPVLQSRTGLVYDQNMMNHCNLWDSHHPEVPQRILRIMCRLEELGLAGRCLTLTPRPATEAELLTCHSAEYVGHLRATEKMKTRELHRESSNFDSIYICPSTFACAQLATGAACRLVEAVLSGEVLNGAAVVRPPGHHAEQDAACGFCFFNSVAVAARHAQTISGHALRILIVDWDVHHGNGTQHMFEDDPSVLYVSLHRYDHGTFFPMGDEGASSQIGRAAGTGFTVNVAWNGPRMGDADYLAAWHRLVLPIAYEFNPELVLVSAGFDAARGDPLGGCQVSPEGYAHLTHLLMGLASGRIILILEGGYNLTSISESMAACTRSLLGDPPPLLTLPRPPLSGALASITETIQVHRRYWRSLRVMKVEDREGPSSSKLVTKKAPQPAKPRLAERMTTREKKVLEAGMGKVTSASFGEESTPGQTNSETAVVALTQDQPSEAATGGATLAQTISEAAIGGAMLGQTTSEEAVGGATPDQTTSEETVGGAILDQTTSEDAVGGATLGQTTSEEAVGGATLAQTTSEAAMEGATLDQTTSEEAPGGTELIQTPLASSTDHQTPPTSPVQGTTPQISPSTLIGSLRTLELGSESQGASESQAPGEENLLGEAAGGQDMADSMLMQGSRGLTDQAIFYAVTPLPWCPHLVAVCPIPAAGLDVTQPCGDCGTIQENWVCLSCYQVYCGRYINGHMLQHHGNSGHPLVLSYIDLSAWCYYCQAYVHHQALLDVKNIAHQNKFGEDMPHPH
Sequence of HDAC7 (Q8WUI4 whole entry): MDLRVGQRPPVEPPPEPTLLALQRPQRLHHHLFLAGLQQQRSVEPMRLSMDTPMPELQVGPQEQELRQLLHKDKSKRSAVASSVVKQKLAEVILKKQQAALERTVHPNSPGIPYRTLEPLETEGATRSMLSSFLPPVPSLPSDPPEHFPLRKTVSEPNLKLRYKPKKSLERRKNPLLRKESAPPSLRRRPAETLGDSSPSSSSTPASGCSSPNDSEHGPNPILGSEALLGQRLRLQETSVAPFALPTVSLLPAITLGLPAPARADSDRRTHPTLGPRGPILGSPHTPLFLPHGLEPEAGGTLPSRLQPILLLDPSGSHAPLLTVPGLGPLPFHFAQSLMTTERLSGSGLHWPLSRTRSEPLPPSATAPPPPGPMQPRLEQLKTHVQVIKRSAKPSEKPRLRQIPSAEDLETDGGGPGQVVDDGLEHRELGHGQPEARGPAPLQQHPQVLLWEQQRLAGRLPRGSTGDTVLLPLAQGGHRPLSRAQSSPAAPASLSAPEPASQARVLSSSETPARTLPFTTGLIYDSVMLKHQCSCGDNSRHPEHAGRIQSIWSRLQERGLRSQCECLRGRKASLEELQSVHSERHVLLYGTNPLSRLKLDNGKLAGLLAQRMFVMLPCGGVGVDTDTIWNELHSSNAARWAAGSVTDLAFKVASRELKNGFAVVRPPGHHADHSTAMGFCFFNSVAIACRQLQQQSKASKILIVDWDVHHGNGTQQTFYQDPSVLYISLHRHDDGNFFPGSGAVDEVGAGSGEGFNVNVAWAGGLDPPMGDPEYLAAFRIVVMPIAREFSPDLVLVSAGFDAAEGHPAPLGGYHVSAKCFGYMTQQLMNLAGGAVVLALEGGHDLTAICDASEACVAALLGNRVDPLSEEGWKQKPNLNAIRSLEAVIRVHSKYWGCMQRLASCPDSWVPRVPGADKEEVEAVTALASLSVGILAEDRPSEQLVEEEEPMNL
Sequence of SIRT3 (Q9NTG7 whole entry, species assumed): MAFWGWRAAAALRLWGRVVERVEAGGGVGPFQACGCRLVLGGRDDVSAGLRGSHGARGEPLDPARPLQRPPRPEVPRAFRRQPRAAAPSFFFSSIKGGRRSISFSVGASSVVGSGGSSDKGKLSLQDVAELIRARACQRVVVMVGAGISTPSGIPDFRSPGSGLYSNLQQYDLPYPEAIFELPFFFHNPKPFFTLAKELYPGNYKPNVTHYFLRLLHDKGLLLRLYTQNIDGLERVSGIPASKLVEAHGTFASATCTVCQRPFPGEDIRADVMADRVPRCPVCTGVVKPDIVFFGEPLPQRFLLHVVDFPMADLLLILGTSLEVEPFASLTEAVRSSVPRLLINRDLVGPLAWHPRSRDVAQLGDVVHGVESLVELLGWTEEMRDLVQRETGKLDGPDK

glucose uptake (NIT-1 cells): no significant effect | IC50 (SIRT3): > 200 µM | IC50 (HDAC9): > 200 µM | IC50 (HDAC7): > 200 µM | IC50 (HDAC3): 112 ± 2.05 µM | number of α cells and β cells in the islets [1]: no significant difference | blood glucose and insulin concentration [2]: no significant difference | IC50 (HDAC6): 96.8 ± 1.98 µM
SMILES: Br.CN(C)C(SCCCCCCn1cnc2c(-c3cc(Br)c(Br)[nH]3)nccc21)=[N+](C)C.[Cl-] [Compound 8a]
colony formation (BXPC-3 cells): much smaller and fewer colonies | tumor inhibition (BXPC-3 xenografts; 8a 20 mg/kg i.p. once every 2 days for 4 weeks, vs control mice): 27% | Ac-H3K9 in tumor tissue (BXPC-3 xenografts; western blotting of tumor tissue samples, 8a 20 mg/kg): elevated
